The text below walks through data of patent publication US20240383911A1, “AZAINDAZOLE MACROCYCLE COMPOUNDS AND USES THEREOF” (BROADENBIO CO., LTD, priority 2021, published 2024).

The structures appear in SMILES notation.

One assay concerns Human Jurkat-E6-1 cells. As to the kind of experiment: Detection of IL-2 production by Jurkat cells using ELISA. The assay is classed as cell-based. To be noted: anti-CD3/anti-CD28 stimulation 24 hours, read-out: Percentage of the amount of IL-2 secreted by compound treated vs DMSO-treated cells; for activity at 3 µM: tested compound 3.0 μM; for activity at 0.33 µM: tested compound 0.33 μM. Here is the method:
(§1) Tested compounds: compounds prepared in the Examples of this invention.
Human Jurkat-E6-1 cells were incubated with various concentrations of tested compounds for 30 minutes in a humidified incubator at 37° C. and 5% CO2. Cells were transferred to cell culture plates pre-coated with anti-human CD3 antibody, then soluble anti-human CD28 antibody was added, and cells were stimulated for 24 hours at 37° C. and 5% CO2 in a humidified incubator. The cell culture medium was collected after centrifugation, and was then transferred to a 96-well transparent microtiter plate (Thermo) pre-coated with anti-human IL-2 antibody, incubated at room temperature for 2 hours with gently shaking, washed with washing buffer for 4 times, and then followed the ELISA MAX Deluxe Set Human IL-2 (BioLegend) kit procedures, used a microplate reader (Molecular Device, i3X) to read the GD value at 450 nm. The best standard curve was selected by the microplate reader application software, and the corresponding concentration was calculated according to the GD value of the standard. Results are expressed as a percentage (%) of the amount of IL-2 secreted by compound-treated vs DMSO-treated cells.
Background: An ELISA detects its analyte on a solid surface through an enzyme-linked reagent.

The target in another assay is HPK1 (Homo sapiens, UniProt Q92918). As to the kind of experiment: HPK1 kinase activity inhibition test (ADP-Glo, luminescence). To be noted: 2 μM ATP, 5 nM HPK1, read-out: IC50, inhibitory effects on HPK1 kinase activity. The format is biochemical. Here is the method: The kinase activity of HPK1 is manifested as activity of autophosphorylation and phosphorylation of downstream substrates. In the process of autophosphorylation, additional substrates are not required, and ATP is consumed to generate ADP. The amount of the product is measured by ADP-Glo reagent and luminescence method to reflect kinase activity.
as §1
Preparation of compound stock solution: dissolve the test compound in 100% DMSO to make a 10 mM stock solution;
Preparation of 4×Kinase Reaction Buffer:
Preparation of 2×HPK1 Kinase Solution:
Preparation of 4×ATP Mixture:
Dilute the stock solution of the test compound by 5 times with 100% DMSO, make a 4-fold equal dilution in a 96-well dilution plate, add 1 μL of the compound to 49 μL of kinase reaction buffer, and shake on a microplate shaker for 20 minutes. Transfer 2 μL of 2×HPK1 kinase solution to 384 reaction plate, add 1 μL of the test compound to the 384 reaction plate (Greiner, Cat #784075), centrifuge for 1 minute (1000 rpm/min), incubate at 25° C. for 10 minutes. Transfer 1 μL of the 4×ATP mixture to a 384 reaction plate, centrifuge for 1 minute (1000 rpm/min), and incubate at 25° C. for 60 minutes. In the reaction system, the final concentration of DMSO is 0.5%. Transfer 4 μL of ADP-Glo to a 384 reaction plate, centrifuge for 1 minute (1000 rpm/min), and incubate at 25° C. for 40 minutes. Transfer 8 μL detection solution to a 384 reaction plate, centrifuge for 1 minute (1000 rpm/min), and incubate at 25° C. for 40 minutes. The […] is read using a Biotek multi-function plate reader, and the IC50 (half inhibitory concentration) of the compound is obtained using a four-coefficient nonlinear fitting formula.
Background: In ADP-Glo the light output rises with the ADP produced.

HPK1, sequence (Q92918 whole entry): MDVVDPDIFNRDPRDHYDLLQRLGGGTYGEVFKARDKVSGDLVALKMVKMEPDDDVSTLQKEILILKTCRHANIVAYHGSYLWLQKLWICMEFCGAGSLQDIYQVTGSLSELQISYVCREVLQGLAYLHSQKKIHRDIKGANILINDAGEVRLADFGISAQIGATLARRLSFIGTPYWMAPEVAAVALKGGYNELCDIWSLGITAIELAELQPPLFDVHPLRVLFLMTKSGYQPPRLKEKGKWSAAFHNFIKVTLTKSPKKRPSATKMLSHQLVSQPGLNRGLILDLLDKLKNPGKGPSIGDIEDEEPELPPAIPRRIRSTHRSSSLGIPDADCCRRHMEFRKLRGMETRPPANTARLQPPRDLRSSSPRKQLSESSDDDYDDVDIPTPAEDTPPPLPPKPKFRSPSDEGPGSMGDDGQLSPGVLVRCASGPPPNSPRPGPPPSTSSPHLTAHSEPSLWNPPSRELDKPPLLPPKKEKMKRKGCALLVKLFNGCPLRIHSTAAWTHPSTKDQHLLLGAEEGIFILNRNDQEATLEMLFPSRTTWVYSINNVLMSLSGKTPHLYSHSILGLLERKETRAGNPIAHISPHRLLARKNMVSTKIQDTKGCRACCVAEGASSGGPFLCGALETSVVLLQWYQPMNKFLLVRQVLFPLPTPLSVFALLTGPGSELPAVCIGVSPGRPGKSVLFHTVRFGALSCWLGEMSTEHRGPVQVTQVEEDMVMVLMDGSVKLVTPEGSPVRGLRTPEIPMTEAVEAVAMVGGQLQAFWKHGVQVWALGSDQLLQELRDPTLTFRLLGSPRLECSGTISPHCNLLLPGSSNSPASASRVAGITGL

Regarding `Fc1cccc2c1-c1cc3c(n[nH]c3cn1)-c1cnc(N3CCOCC3)c(c1)OCCCO2` [Compound 4, 16-fluoro-5-(morpholin-4-yl)-7,11-dioxa-4,19,22,23-tetraazapentacyclo[16.5.2.1^2,6.0^12,17.0^21,24]hexacosa-1(23),2(26),3,5,12,14,16,18,20,24-decaene], in the assay on Human Jurkat-E6-1 cells, the activity at 3 µM is 801%. Moreover, at HPK1, the IC50 was 5 to 50 nM.
In the case of `CN1CCN(c2ccc3cc2OCCCCOc2cccc(F)c2-c2cc4c-3n[nH]c4cn2)CC1` [Compound 7, 17-fluoro-5-(4-methylpiperazin-1-yl)-7,12-dioxa-20,23,24-triazapentacyclo[17.5.2.1^2,6.0^13,18.0^22,25]heptacosa-1(24),2(27),3,5,13,15,17,19,21,25-decaene], the activity at 3 µM in the assay on Human Jurkat-E6-1 cells is 404%. For the same compound, the 50% inhibitory concentration (IC50) at HPK1 lay in the range of 5 to 50 nM.
As to `CN1CCN(c2ccc3cc2OCCCOCc2cccc(F)c2-c2cc4c-3n[nH]c4cn2)CC1(C)C` [Compound 17, 17-fluoro-5-(3,3,4-trimethylpiperazin-1-yl)-7,11-dioxa-20,23,24-triazapentacyclo[17.5.2.1^2,6.0^13,18.0^22,25]heptacosa-1(24),2,4,6(27),13(18),14,16,19,21,25-decaene], the activity at 0.33 µM with Human Jurkat-E6-1 cells was found to be 439%. On HPK1, the IC50 was not above 5 nM.
For the compound `CN1C2CCC1CN(c1ccc3cc1OCCCOCc1cccc(F)c1-c1cc4c-3n[nH]c4cn1)C2` [Compound 18, 17-fluoro-5-{8-methyl-3,8-diazabicyclo[3.2.1]octan-3-yl}-7,11-dioxa-20,23,24-triazapentacyclo[17.5.2.1^2,6.0^13,18.0^22,25]heptacosa-1(24),2,4,6(27),13(18),14,16,19,21,25-decaene], the activity at 0.33 µM in the assay with Human Jurkat-E6-1 cells stood at 486%. The IC50 at HPK1 is not above 5 nM.
For the compound `CN1CCN(c2ccc3cc2OCCCCOCc2cccc(F)c2-c2cc4c-3n[nH]c4cn2)CC1` [Compound 100, 18-fluoro-5-(4-methylpiperazin-1-yl)-7,12-dioxa-21,24,25-triazapentacyclo[18.5.2.1^2,6.0^14,19.0^23,26]octacosa-1(25),2(28),3,5,14(19),15,17,20,22,26-decaene], the activity at 1 µM with Human Jurkat-E6-1 cells (tested compound 1.0 μM) is 235%. The IC50 at HPK1 was 5 to 50 nM.
Consider `CN1CCN(c2ccc3cc2OCCCCCc2cccc(F)c2-c2cc4c-3n[nH]c4cn2)CC1` [Compound 101, 17-fluoro-5-(4-methylpiperazin-1-yl)-7-oxa-20,23,24-triazapentacyclo[17.5.2.1^2,6.0^13,18.0^22,25]heptacosa-1(24),2(27),3,5,13(18),14,16,19,21,25-decaene], for which the activity at 0.33 µM in the assay on Human Jurkat-E6-1 cells came to 257%. Also, the IC50 at HPK1 is not above 5 nM.
Regarding `CN1CCN(c2ccc3cc2OCCCOc2cccc(F)c2-c2cc4c-3n[nH]c4cn2)C[C@@H]1CO` [Compound 130, [(2R)-4-{16-fluoro-7,11-dioxa-19,22,23-triazapentacyclo[16.5.2.1^2,6.0^12,17.0^21,24]hexacosa-1(23),2,4,6(26),12(17),13,15,18,20,24-decaen-5-yl}-1-methylpiperazin-2-yl]methanol], on HPK1, the concentration for half-maximal inhibition (IC50) was not above 5 nM.
For `CN1CCN(c2ccc3cc2OCCCOc2cccc(F)c2-c2cc4c-3n[nH]c4cn2)C[C@H]1CO` [Compound 131, [(2S)-4-{16-fluoro-7,11-dioxa-19,22,23-triazapentacyclo[16.5.2.1^2,6.0^12,17.0^21,24]hexacosa-1(23),2,4,6(26),12(17),13,15,18,20,24-decaen-5-yl}-1-methylpiperazin-2-yl]methanol], at HPK1, the concentration for half-maximal inhibition (IC50) was not above 5 nM.
The same measure, in the same setting: under `O=C1OC[C@H]2CN(c3ccc4cc3OCCCOc3cccc(F)c3-c3cc5c-4n[nH]c5cn3)CCN12` [Compound 134, (8aR)-7-{16-fluoro-7,11-dioxa-19,22,23-triazapentacyclo[16.5.2.1^2,6.0^12,17.0^21,24]hexacosa-1(23),2,4,6(26),12(17),13,15,18,20,24-decaen-5-yl}-hexahydro-1H-[1,3]oxazolo[3,4-a]pyrazin-3-one] stands not above 5 nM; under `O=C1OC[C@@H]2CN(c3ccc4cc3OCCCOc3cccc(F)c3-c3cc5c-4n[nH]c5cn3)CCN12` [Compound 135, (8aS)-7-{16-fluoro-7,11-dioxa-19,22,23-triazapentacyclo[16.5.2.1^2,6.0^12,17.0^21,24]hexacosa-1(23),2,4,6(26),12(17),13,15,18,20,24-decaen-5-yl}-hexahydro-1H-[1,3]oxazolo[3,4-a]pyrazin-3-one], not above 5 nM; under `CN1C[C@H]2CN(c3ccc4cc3OCCCOc3cccc(F)c3-c3cc5c-4n[nH]c5cn3)CCN2CC1=O` [Compound 137, (9aR)-8-{16-fluoro-7,11-dioxa-19,22,23-triazapentacyclo[16.5.2.1^2,6.0^12,17.0^21,24]hexacosa-1(23),2,4,6(26),12(17),13,15,18,20,24-decaen-5-yl}-2-methyl-octahydro-1H-[1,4]diazino[1,2-a]pyrazin-3-one], not above 5 nM.
As to `CN1C[C@@H]2CN(c3ccc4cc3OCCCOc3cccc(F)c3-c3cc5c-4n[nH]c5cn3)CCN2CC1=O` [Compound 138, (9aS)-8-{16-fluoro-7,11-dioxa-19,22,23-triazapentacyclo[16.5.2.1^2,6.0^12,17.0^21,24]hexacosa-1(23),2,4,6(26),12(17),13,15,18,20,24-decaen-5-yl}-2-methyl-octahydro-1H-[1,4]diazino[1,2-a]pyrazin-3-one], the concentration for half-maximal inhibition (IC50) at HPK1 was not above 5 nM.
Take `CN1C[C@@H]2C[C@H]1CN2c1ccc2cc1OCCCOc1cccc(F)c1-c1cc3c-2n[nH]c3cn1` [Compound 140, 16-fluoro-5-[(1S,4S)-5-methyl-2,5-diazabicyclo[2.2.1]heptan-2-yl]-7,11-dioxa-19,22,23-triazapentacyclo[16.5.2.1^2,6.0^12,17.0^21,24]hexacosa-1(23),2,4,6(26),12(17),13,15,18,20,24-decaene]: the IC50 at HPK1 is not above 5 nM.
For `CN1C[C@H]2C[C@@H]1CN2c1ccc2cc1OCCCOc1cccc(F)c1-c1cc3c-2n[nH]c3cn1` [Compound 141, 16-fluoro-5-[(1R,4R)-5-methyl-2,5-diazabicyclo[2.2.1]heptan-2-yl]-7,11-dioxa-19,22,23-triazapentacyclo[16.5.2.1^2,6.0^12,17.0^21,24]hexacosa-1(23),2,4,6(26),12(17),13,15,18,20,24-decaene], the 50% inhibitory concentration (IC50) at HPK1 was not above 5 nM.
Still for that read-out and setting: the value for `Fc1cccc2c1-c1cc3c(n[nH]c3cn1)-c1ccc(N3C[C@@H]4C[C@H]3CN4C3COC3)c(c1)OCCCO2` [Compound 142, 16-fluoro-5-[(1S,4S)-5-(oxetan-3-yl)-2,5-diazabicyclo[2.2.1]heptan-2-yl]-7,11-dioxa-19,22,23-triazapentacyclo[16.5.2.1^2,6.0^12,17.0^21,24]hexacosa-1(23),2,4,6(26),12(17),13,15,18,20,24-decaene] was 5 to 50 nM; that for `CN1CCN(c2ccc3cc2OCCCOc2cccc(F)c2-c2cc4c-3n[nH]c4cn2)CC1(C)C` [Compound 143, 16-fluoro-5-(3,3,4-trimethylpiperazin-1-yl)-7,11-dioxa-19,22,23-triazapentacyclo[16.5.2.1^2,6.0^12,17.0^21,24]hexacosa-1(23),2,4,6(26),12(17),13,15,18,20,24-decaene] was not above 5 nM.

In general, IC50 refers to the midpoint of a concentration-inhibition curve.
